Results reported in patent US10150737B2, “Compounds for controlling arthropods” (priority 2013, dated 2018).

Key:
[1] = system: Lucilia cuprina; assay: Lucilia cuprina test; type: in vivo; conditions: application rate 100 ppm; L1 larvae; after 2 days
Procedure, shortened: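 Mortality (%) of first-instar blowfly larvae, about 20 per vessel, recorded 2 days after exposure to compound-treated minced horsemeat. Compound dissolved in dimethyl sulphoxide, then water-diluted to the desired concentration.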

[2] = system: Musca domestica; assay: Musca domestica test; type: in vivo; conditions: application rate 100 ppm; adult houseflies; after 2 days
Procedure, shortened: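 First, 10 mg compound was taken up in 0.5 ml DMSO and then brought with water to the required concentration. This was applied with sugar solution to a sponge in vessels holding 10 adult flies; kill was assessed after 2 days.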

[3] = system: Ctenocephalides felis; assay: Ctenocephalides felis - in vitro contact tests with adult cat fleas; type: in vivo; conditions: application rate 5 μg/cm2 (=500 g/ha); after 48 h; fleas dead or moribund
Procedure, shortened: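 Efficacy, as percentage of fleas dead or moribund, was scored at 48 h by knocking fleas to the tube base. Exposure was by contact with a dried acetone film of compound at 5 μg/cm^2 area dose; 5–10 adults per tube, room temperature, ambient humidity.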

[4] = system: Amblyomma hebraeum; assay: Amblyomma hebaraeum test (tick nymphs, immersion); type: in vivo; conditions: application rate 100 ppm; tick nymphs immersed one minute; after 42 days
Procedure: Solvent: dimethyl sulphoxide
To produce an appropriate active ingredient formulation, 10 mg of active ingredient are mixed with 0.5 ml of dimethyl sulphoxide, and the concentrate is diluted with water to the desired concentration.
Tick nymphs (Amblyomma hebraeum) are placed into perforated plastic beakers and immersed in the desired concentration for one minute. The ticks are transferred on filter paper into a Petri dish and stored in a climate-controlled cabinet.
After 42 days, the kill in % is determined. 100% means that all of the ticks have been killed; 0% means that none of the ticks have been killed.

[5] = logP determination by HPLC on a reversed-phase column (C18); type: physicochemical; conditions: for logP^a): HPLC-MS method a); for log P: HPLC-MS
[6] = system: Phaedon cochleariae; assay: Phaedon cochleariae - spray test; type: in vivo; conditions: larvae on Chinese cabbage leaf discs, after 7 days
Procedure, shortened: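 Mortality of mustard beetle larvae was scored as % at day 7 on Brassica pekinensis leaf discs. Discs had been treated by spraying at the desired concentration, using an acetone/dimethylformamide solution diluted in water with 1000 ppm alkylaryl polyglycol ether, and dried before larvae were added.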

[7] = system: Boophilus microplus; assay: Boophilus microplus - injection test; type: in vivo; conditions: application rate 20 μg/animal, injection into engorged adult female ticks, after 7 days
Procedure, shortened: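 Five engorged adult female cattle ticks each received a 1 μl abdominal injection of compound solution in dimethyl sulphoxide. Fertile egg laying was assessed at 7 days, with doubtful eggs incubated about 42 days until hatch. 0% efficacy means all eggs fertile.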

[8] = system: Spodoptera frugiperda; assay: Spodoptera frugiperda - spray test; type: in vivo; conditions: caterpillars on maize leaf discs, after 7 days
Procedure, shortened: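 Percent mortality of Spodoptera frugiperda caterpillars scored 7 days after placing them on dried maize leaf discs sprayed at the desired concentration. Spray formulation: compound dissolved in acetone/dimethylformamide, made up with water containing 1000 ppm emulsifier.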

[9] = system: Boophilus microplus Parkhurst strain, SP-resistant; assay: Boophilus microplus - dip test; type: in vivo; conditions: application rate 100 ppm; dip of engorged adult female ticks; after 7 days
Procedure, shortened: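 Compound dissolved in DMSO, diluted with water, and used to fully wet groups of 8-10 engorged female cattle ticks (SP-resistant Parkhurst strain). Fertile egg laying assessed at 7 days, doubtful eggs held ~42 days until hatch; 0% means all eggs fertile.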

[10] = system: Myzus persicae; assay: Myzus persicae - spray test; type: in vivo; conditions: Chinese cabbage leaf discs, after 6 days
Procedure, shortened: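 Mortality of the green peach aphid, as % killed, was read 6 days after spraying infested Brassica pekinensis leaf discs. Compound formulated in acetone/dimethylformamide and made up with emulsifier-containing (1000 ppm) water.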

[11] = system: Ctenocephalides felis; assay: Ctenocephalides felis - oral test; type: in vivo; conditions: application rate 100 ppm in citrated cattle blood; after 2 days
Procedure, shortened: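 Roughly 20 unfed adult C. felis imbibe compound-dosed citrated cattle blood (DMSO formulation) across parafilm from a cylinder above their gauze chamber; percentage mortality recorded at day 2.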

[12] = system: Rhipicephalus sanguineus; assay: Rhipicephalus sanguineus - in vitro contact tests with adult brown dog ticks; type: in vivo; conditions: after 48 h, ticks dead or moribund
Procedure, shortened: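 Efficacy, scored after 48 h, is the % of adult ticks dead or moribund, i.e. unable to climb away on a 45-50° C hotplate within 5 min. Tubes held 5-10 ticks in the dark at room temperature, on an acetone-applied coating of 5 μg/cm^2 (900 ppm solution).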

[13] = system: Tetranychus urticae; assay: Tetranychus urticae - spray test, OP-resistant; type: in vivo; conditions: bean leaf discs, after 6 days
Procedure, shortened: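 Mortality (%) read on day 6 after spraying Phaseolus vulgaris leaf discs carrying all mite stages with formulations at the desired concentration. Formulation: active ingredient in acetone plus dimethylformamide, made up with emulsifier-containing water (1000 ppm alkylaryl polyglycol ether).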

[14] = reversed-phase column (C18), Table I-T3

| SMILES | efficacy (kill) [1] | efficacy (kill) [2] | efficacy [3] | efficacy (kill) [4] | logP^a) [5] | logP^a) [5, 14] | efficacy ([6]; application rate 100 g/ha) | efficacy (laying of fertile eggs) [7] | efficacy ([8]; application rate 100 g/ha) | efficacy (laying of fertile eggs) [9] | efficacy ([10]; application rate 100 g/ha) | efficacy (kill) [11] | efficacy ([12]; application rate 5 μg/cm2) | efficacy ([13]; application rate 100 g/ha) | also measured |
| --- | --- | --- | --- | --- | --- | --- | --- | --- | --- | --- | --- | --- | --- | --- | --- |
| Cc1cc(C(F)(C(F)(F)F)C(F)(F)F)cc(C(F)(F)F)c1-n1cc(-c2ccc(Cl)c(C(=O)NC3CC3)c2)cn1 [I-T3-54] | 100% | 100% | 100% | 100% | 4.4 | 4.4 | 100% | 100% | 100% | 100% | 100% | 100% | 100% | 100% | – |
| N#CC1(NC(=O)c2cc(-c3cnn(-c4c(Cl)cc(C(F)(C(F)(F)F)C(F)(F)F)cc4C(F)(F)F)c3)cnc2Cl)CC1 [I-T3-114] | 100% | 100% | 100% | 100% | – | – | – | 100% | – | 100% | – | 100% | – | – | logP^a) ([5]; reversed-phase column (C18)): 4.0; log P [5, 14]: 4.0; efficacy ([6]; application rate 500 g/ha): 100%; efficacy ([8]; application rate 500 g/ha): 100%; efficacy ([10]; application rate 500 g/ha): 90%; efficacy ([12]; application rate 1 μg/cm2): 100%; efficacy ([13]; application rate 500 g/ha): 100% |
| N#CC1(NC(=O)c2cc(-c3cnn(-c4ccc(C(F)(C(F)(F)F)C(F)(F)F)cc4C(F)(F)F)c3)ccc2Cl)CC1 [I-T3-53] | 100% | 100% | – | 80% | 4.3 | 4.3 | 100% | 100% | 100% | 100% | 90% | 100% | 100% | 100% | – |
| CCc1cc(C(F)(C(F)(F)F)C(F)(F)F)cc(C)c1-n1cc(-c2ccc(Cl)c(C(=O)NC3CC3)c2)cn1 [I-T3-44] | 100% | – | 100% | 100% | 4.7 | 4.7 | – | 100% | – | 100% | – | 100% | 100% | – | efficacy ([6]; application rate 500 g/ha): 100%; efficacy ([8]; application rate 500 g/ha): 100%; efficacy ([10]; application rate 500 g/ha): 100%; efficacy ([13]; application rate 500 g/ha): 100% |
| Cc1cc(C(F)(C(F)(F)F)C(F)(F)F)cc(C)c1-c1cnn(-c2cnc(Cl)c(C(=O)NC3CC3)c2)c1 [I-T4-3, 2-chloro-N-cyclopropyl-5-[4-[2,6-dimethyl-4-[1,2,2,2-tetrafluoro-1-(trifluoromethyl)ethyl]phenyl]pyrazol-1-yl]pyridine-3-carboxamide] | – | – | 100% | 100% | – | – | – | – | – | 100% | 90% | – | 100% | – | logP ([5]; HPLC, C18 reversed phase, acetonitrile/water with formic acid, EEC Directive 79/831 Annex V.A8): 4.4; pest or weed control at 0.02 mg ([7]; Rhipicephalus microplus, 168 h, read-out: efficacy (laying of fertile eggs)): 100% |
| O=C(NC1CC1)c1cc(-c2cnn(-c3c(Cl)cc(C(F)(C(F)(F)F)C(F)(F)F)cc3C(F)(F)F)c2)ccc1Cl [I-T3-56] | 100% | 100% | 100% | 100% | 4.4 | 4.4 | 100% | 100% | 100% | 100% | – | 100% | 100% | 100% | – |
| CCc1cc(C(F)(C(F)(F)F)C(F)(F)F)cc(Cl)c1-n1cc(-c2ccc(Cl)c(C(=O)NC3(C#N)CC3)c2)cn1 [I-T3-71] | 100% | 100% | 100% | 100% | 4.5 | 4.5 | 100% | 100% | 100% | 100% | – | 100% | 100% | 90% | – |
| O=C(NC1CC1)c1cc(-c2cnn(-c3c(Br)cc(C(F)(C(F)(F)F)C(F)(F)F)cc3C(F)(F)F)c2)ccc1Cl [I-T3-148] | 100% | 100% | 100% | 100% | – | – | 100% | 100% | 100% | 100% | – | 100% | 100% | 90% | logP^a) ([5]; reversed-phase column (C18)): 4.5; log P [5, 14]: 4.5 |
| O=C(NC1CC1)c1cc(-c2cnn(-c3c(F)cc(C(F)(C(F)(F)F)C(F)(F)F)cc3F)c2)ccc1Cl [I-T3-61] | 100% | 100% | 100% | 80% | 4.0 | 4.0 | 100% | 100% | 100% | 100% | – | 100% | 100% | 100% | – |
